Data as given in paper PMC10377586 (Biomolecules, 2023).

Legend:
SH-SY5Y cells [1] = assay: Neuroprotection against H2O2-induced toxicity, LDH assay; type: cell-based; settings: 300 µM hydrogen peroxide, compounds at 10 or 50 µM
Procedure: (§1) For neuroprotection studies, a cellular model of neuroblastoma SH-SY5Y cells exposed to hydrogen peroxide was applied. Lactate dehydrogenase (LDH) release was used as a measure of cell death. First, the compounds (11a, 11c, 12, 13, 20a, 21, and 22) were tested for their possible intrinsic neurotoxicity to the SH-SY5Y cell line (see Supplementary Figure S1). […] All other compounds were tested for cytoprotective effects against H2O2-induced toxicity in SH-SY5Y cells.
(§2) Neuroblastoma SH-SY5Y cells were seeded at the density of 20,000 cells per well to 96-well plates one day before the experiment. Twelve hours prior to start of the assay, cell culture medium was replaced with the fresh portion of reduced serum (1%) medium. Tested compounds were added to the cells at the final concentration of 10 or 50 µM in 1% DMSO. In the neuroprotection studies, hydrogen peroxide, at a final concertation of 300 µM, was pipetted to the assay plate 1 h after tested compounds addition. Cell death, represented by the release of LDH through the perforated cell membrane, was measured following 14 h incubation of cells with the compounds and hydrogen peroxide. LDH levels in cell culture medium were determined using fluorometric CytoTox-ONE Homogeneous Membrane Integrity Assay (Promega Corporation, Madison, WI, USA), according to manufacturer’s instructions.
Figure 3 The ability of tested compounds to reduce the cytotoxicity of 300 μM hydrogen peroxide (HP) on dopaminergic neuronal cells (SH-SY5Y) as judged by LDH assay. Data represent the mean of two experiments performed in triplicate. Results are presented as percent of cytotoxicity induced by 300 µM hydrogen peroxide (HP) ± SEM. NT–vehicle control (1% DMSO).

rat A2A (rA2A) ARs = biological target: T1, rat A2A (rA2A) ARs (Rattus norvegicus, UniProt P30543); assay: Radioligand binding [3H]MSX-2, rat brain striatal membranes; settings: read-out: rA2A [3H]MSX-2 % inhibition ± SEM at 10 µM
T1 construct: rat brain striatal membrane preparations for A2A AR assays; tissue Pel Freez; host or cells: rat brain striatum membranes

rat A1 (rA1) ARs = biological target: T2, rat A1 (rA1) ARs (Rattus norvegicus, UniProt P25099); assay: Radioligand binding [3H]CCPA, rat brain cortical membranes; settings: read-out: rA1 [3H]CCPA % inhibition ± SEM at 10 µM
T2 construct: using rat brain cortical membrane preparations for A1; tissue Pel Freez; host or cells: rat brain cortex membranes
T2 sequence (P25099 1-326): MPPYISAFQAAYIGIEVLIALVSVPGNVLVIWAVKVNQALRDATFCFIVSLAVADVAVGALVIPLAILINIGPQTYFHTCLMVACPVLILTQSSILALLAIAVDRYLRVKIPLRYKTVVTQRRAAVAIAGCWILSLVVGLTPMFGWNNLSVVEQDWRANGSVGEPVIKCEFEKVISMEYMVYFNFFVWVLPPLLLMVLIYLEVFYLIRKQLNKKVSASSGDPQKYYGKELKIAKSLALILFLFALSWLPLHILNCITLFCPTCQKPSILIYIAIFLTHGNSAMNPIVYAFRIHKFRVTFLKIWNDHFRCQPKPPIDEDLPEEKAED

SH-SY5Y cells [2] = assay: Intrinsic neurotoxicity, LDH release from SH-SY5Y cells; type: cell-based; settings: 50 µM
Procedure: as §1, §2
Supplementary Figure 1. […]

[3] = biological target: human dopamine D2L receptors (Homo sapiens, UniProt P14416); assay: cAMP accumulation assay in forskolin-stimulated HEK293 cells expressing hD2R; type: cell-based
human dopamine D2L receptors, sequence (P14416 whole entry): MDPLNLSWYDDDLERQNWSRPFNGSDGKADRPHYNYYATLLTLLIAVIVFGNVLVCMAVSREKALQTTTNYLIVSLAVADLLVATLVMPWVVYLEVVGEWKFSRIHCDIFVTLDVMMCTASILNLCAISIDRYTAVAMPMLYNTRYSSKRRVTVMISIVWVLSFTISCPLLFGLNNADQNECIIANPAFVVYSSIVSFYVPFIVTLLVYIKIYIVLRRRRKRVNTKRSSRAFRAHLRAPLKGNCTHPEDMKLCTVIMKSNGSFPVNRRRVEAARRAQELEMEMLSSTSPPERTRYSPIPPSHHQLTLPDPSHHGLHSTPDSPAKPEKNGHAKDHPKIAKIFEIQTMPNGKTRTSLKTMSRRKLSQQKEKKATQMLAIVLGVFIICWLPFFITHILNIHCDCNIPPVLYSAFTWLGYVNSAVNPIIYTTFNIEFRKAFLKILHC
Procedure: Briefly, HEK293 cells stably expressing human D2LR were incubated (30 min, room temperature) with forskolin (1 μM) and evaluated compounds in triplicates (7 appropriate concentrations in a range spanning over 6 log units) in presence of phosphodiesterase inhibitor (RO-201724, 100 μM). Subsequently, intracellular cAMP accumulation was measured with homogenous TR-FRET immunoassay, using LANCE Ultra cAMP kit (PerkinElmer) and following manufacturer’s instructions. TR-FRET signal, inversely proportional to cAMP concentration in sample, was measured using Infinite M1000 Pro microplate reader (Tecan, Männedorf, Switzerland). Sigmoidal dose–response curve fitting was performed, using GraphPad Prism™ software (version 5.01, San Diego, CA, USA).

T1 sequence (P30543 whole entry): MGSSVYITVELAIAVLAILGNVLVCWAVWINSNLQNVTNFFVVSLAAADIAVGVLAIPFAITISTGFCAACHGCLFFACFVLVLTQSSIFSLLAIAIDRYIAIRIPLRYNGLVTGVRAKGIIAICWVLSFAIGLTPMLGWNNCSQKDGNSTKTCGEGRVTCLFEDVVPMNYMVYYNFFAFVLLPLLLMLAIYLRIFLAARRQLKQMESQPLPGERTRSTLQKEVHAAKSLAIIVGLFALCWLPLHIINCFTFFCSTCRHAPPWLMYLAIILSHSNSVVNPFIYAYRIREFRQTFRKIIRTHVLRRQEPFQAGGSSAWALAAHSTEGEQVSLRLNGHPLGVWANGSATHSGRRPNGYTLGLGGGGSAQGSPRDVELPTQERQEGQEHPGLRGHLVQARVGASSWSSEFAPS

Structure (SMILES) | dose dependence of cytoprotective effect (SH-SY5Y cells [1]) | inhibition at 10 µM (rat A1 (rA1) ARs) | cytoprotective effect against H2O2-induced toxicity (LDH release) (SH-SY5Y cells [1]) | further results
CCCn1c(NCCc2ccc(O)c(O)c2)nc2c1c(=O)n(C)c(=O)n2C [Compound 11c, 8-((3,4-Dihydroxyphenethyl)amino)-1,3-dimethyl-7-propyl-3,7-dihydro-1H-purine-2,6-dione] | Dose-dependent responses |  |  | 
CCCCCCn1c(NCCc2ccc(O)c(O)c2)nc2c1c(=O)n(C)c(=O)n2C [Compound 11i, 8-((3,4-Dihydroxyphenethyl)amino)-7-hexyl-1,3-dimethyl-3,7-dihydro-1H-purine-2,6-dione] |  | 43% |  | inhibition at 10 µM (rat A2A (rA2A) ARs): 14%
Cn1c(=O)c2c(nc(NCCc3ccc(O)c(O)c3)n2CCc2ccccc2)n(C)c1=O [Compound 11k, 8-((3,4-Dihydroxyphenethyl)amino)-1,3-dimethyl-7-phenethyl-3,7-dihydro-1H-purine-2,6-dione] |  | 46% |  | inhibition at 10 µM (rat A2A (rA2A) ARs): 44%
CCCn1c(=O)c2c(nc(NCCc3ccc(O)c(O)c3)n2CCC)n(CCC)c1=O [Compound 12, 8-((3,4-Dihydroxyphenethyl)amino)-1,3,7-tripropyl-3,7-dihydro-1H-purine-2,6-dione] | Dose-dependent responses |  | most potent | 
CCCCn1c(=O)c2c(nc(NCCc3ccc(O)c(O)c3)n2CCC)n(CCCC)c1=O [Compound 13, 1,3-Dibutyl-8-((3,4-dihydroxyphenethyl)amino)-7-propyl-3,7-dihydro-1H-purine-2,6-dione] |  |  |  | intrinsic neurotoxicity to SH-SY5Y cell line (LDH release) (SH-SY5Y cells [2]): significant cytotoxicity; EC50 ([3]; forskolin-stimulated HEK293 cells, human D2L, read-out: EC50, functional cAMP assay): 11.3 µM; intrinsic activity at D2R ([3]; functional cAMP assay): agonistic properties
Cn1c(=O)c2c(nc3n2CCCN3CCc2ccc(O)c(O)c2)n(C)c1=O [Compound 20a, 9-(3,4-Dihydroxyphenethyl)-1,3-dimethyl-6,7,8,9-tetrahydropyrimido[2,1-f]purine-2,4(1H,3H)-dione] |  | 43% |  | 
CCCn1c(=O)c2c(nc3n2CCCN3CCc2ccc(O)c(O)c2)n(CCC)c1=O [Compound 21, 9-(3,4-Dihydroxyphenethyl)-1,3-dipropyl-6,7,8,9-tetrahydropyrimido[2,1-f]purine-2,4(1H,3H)-dione] | Dose-dependent responses |  | most potent | 
CCCCn1c(=O)c2c(nc3n2CCCN3CCc2ccc(O)c(O)c2)n(CCCC)c1=O [Compound 22, 1,3-Dibutyl-9-(3,4-dihydroxyphenethyl)-6,7,8,9-tetrahydropyrimido[2,1-f]purine-2,4(1H,3H)-dione] |  |  | most potent | 
